Assay results taken from ChEMBL document CHEMBL4665820, “Discovery of VU6027459: A First-in-Class Selective and CNS Penetrant mGlu Positive Allosteric Modulator Tool Compound” (ACS Med Chem Lett, 2020).

Legend:
[1] = organism: Rattus norvegicus; test: Displacement of [3H]-idazoxan from rat imidazoline I2 receptor at 10 uM incubated for 30 mins by scintillation counting analysis relative to control
[2] = molecular target: Platelet-activating factor receptor (Homo sapiens) (UniProt P25105); test: Displacement of [3H]-C18-PAF from human PAF receptor at 10 uM incubated for 180 mins by scintillation counting analysis relative to control
Sequence of Platelet-activating factor receptor (Homo sapiens) (P25105 whole entry): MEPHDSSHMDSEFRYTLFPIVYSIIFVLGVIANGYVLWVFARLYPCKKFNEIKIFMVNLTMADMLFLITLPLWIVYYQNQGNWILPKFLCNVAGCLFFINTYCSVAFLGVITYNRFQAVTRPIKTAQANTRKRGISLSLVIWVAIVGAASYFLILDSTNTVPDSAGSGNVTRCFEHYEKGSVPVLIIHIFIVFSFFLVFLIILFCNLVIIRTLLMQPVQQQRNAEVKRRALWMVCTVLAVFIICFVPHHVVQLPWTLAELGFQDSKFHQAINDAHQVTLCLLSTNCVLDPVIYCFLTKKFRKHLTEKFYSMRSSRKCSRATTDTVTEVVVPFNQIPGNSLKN

[3] = molecular target: Sodium-dependent noradrenaline transporter (Homo sapiens) (UniProt P23975); test: Displacement of […] from recombinant human norepinephrine transporter at 10 uM after 120 mins by scintillation counting analysis relative to control
[4] = molecular target: Muscarinic acetylcholine receptor M2 (Homo sapiens) (UniProt P08172); test: Displacement of [3H]AF-DX 384 from human recombinant M2 receptor at 10 uM after 60 mins by scintillation counting analysis relative to control
[5] = molecular target: Histamine H1 receptor (Homo sapiens) (UniProt P35367); test: Displacement of [3H]pyrilamine from human recombinant histamine H1 receptor at 10 uM after 60 mins by scintillation counting analysis relative to control
[6] = organism: Rattus norvegicus; test: Displacement of [3H]-Nitrendipine from L-type calcium channel dihydropyridine binding site in rat brain at 10 uM incubated for 90 mins by scintillation counting analysis relative to control; format: tissue-based
[7] = molecular target: B2 bradykinin receptor (Homo sapiens) (UniProt P30411); test: Displacement of [3H]bradykinin from human recombinant B2 receptor at 10 uM after 60 mins by scintillation counting analysis relative to control
Sequence of B2 bradykinin receptor (Homo sapiens) (P30411 whole entry): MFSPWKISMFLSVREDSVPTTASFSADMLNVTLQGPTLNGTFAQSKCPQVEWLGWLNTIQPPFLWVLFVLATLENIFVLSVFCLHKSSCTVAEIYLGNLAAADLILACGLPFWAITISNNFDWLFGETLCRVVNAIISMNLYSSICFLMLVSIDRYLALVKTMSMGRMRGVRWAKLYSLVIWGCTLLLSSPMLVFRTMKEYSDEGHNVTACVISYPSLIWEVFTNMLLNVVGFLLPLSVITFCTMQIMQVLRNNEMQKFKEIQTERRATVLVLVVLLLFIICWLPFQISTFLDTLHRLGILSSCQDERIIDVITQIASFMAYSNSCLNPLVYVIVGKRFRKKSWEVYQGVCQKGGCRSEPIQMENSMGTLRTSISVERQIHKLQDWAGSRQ

[8] = molecular target: Glucocorticoid receptor (Homo sapiens) (UniProt P04150); test: Displacement of [3H]-Dexamethasone from human Glucocorticoid receptors at 10 uM incubated for 360 mins by scintillation counting analysis relative to control
[9] = molecular target: Epidermal growth factor receptor (Homo sapiens) (UniProt P00533); test: Displacement of [125I]-EGF from human EGF receptor at 10 uM incubated for 60 mins by scintillation counting analysis relative to control
Sequence of Epidermal growth factor receptor (Homo sapiens) (P00533 whole entry): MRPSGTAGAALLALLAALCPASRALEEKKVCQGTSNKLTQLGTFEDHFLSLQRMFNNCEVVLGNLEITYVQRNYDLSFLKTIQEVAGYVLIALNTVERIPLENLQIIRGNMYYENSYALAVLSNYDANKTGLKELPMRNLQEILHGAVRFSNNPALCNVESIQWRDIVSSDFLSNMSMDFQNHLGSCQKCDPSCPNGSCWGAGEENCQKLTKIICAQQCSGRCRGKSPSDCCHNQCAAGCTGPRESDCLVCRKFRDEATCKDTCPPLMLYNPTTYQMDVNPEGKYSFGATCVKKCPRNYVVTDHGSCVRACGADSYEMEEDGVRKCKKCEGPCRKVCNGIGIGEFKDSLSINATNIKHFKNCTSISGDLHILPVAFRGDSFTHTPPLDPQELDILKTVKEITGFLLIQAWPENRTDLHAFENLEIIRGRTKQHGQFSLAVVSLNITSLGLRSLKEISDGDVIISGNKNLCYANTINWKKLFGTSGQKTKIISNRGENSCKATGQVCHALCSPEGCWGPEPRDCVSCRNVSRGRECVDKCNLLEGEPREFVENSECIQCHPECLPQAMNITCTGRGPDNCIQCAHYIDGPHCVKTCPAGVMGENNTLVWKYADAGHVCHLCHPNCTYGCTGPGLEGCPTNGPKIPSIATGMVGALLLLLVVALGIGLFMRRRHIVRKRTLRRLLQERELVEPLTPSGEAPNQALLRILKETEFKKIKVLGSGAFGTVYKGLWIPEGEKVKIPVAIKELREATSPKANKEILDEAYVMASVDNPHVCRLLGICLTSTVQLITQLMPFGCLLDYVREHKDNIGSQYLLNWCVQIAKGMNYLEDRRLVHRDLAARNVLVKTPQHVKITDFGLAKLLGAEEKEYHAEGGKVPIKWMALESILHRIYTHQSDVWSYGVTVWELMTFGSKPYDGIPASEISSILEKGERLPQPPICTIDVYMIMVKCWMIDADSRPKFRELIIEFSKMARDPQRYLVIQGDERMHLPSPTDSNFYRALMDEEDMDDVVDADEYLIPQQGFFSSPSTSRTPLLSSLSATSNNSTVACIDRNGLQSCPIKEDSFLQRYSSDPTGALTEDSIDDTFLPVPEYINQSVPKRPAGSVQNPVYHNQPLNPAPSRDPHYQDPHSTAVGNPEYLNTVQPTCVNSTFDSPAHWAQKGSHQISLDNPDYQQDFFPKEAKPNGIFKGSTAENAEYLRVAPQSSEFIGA

[10] = molecular target: Endothelin receptor type B (Homo sapiens) (UniProt P24530); test: Displacement of [125I]-endothelin1 from human recombinant Endothelin ETB receptor cells at 10 uM incubated for 120 mins by scintillation counting analysis relative to control; format: cell-based
Sequence of Endothelin receptor type B (Homo sapiens) (P24530 whole entry): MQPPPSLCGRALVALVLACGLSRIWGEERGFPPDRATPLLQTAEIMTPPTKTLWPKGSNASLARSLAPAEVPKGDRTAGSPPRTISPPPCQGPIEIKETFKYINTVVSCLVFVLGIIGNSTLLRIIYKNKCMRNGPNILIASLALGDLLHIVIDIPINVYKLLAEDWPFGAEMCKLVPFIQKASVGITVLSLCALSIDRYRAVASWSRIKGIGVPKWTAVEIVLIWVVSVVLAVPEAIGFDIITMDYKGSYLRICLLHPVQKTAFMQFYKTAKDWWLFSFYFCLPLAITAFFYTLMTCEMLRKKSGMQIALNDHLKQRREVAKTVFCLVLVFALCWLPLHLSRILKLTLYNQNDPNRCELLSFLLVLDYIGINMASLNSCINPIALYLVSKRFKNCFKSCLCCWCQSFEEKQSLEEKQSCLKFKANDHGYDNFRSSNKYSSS

[11] = molecular target: Muscarinic acetylcholine receptor M3 (Homo sapiens) (UniProt P20309); test: Displacement of [3H]4-DAMP from human recombinant M3 receptor at 10 uM after 60 mins by scintillation counting analysis relative to control
[12] = molecular target: Sodium-dependent serotonin transporter (Homo sapiens) (UniProt P31645); test: Displacement of [3H]-imipramine from recombinant human 5-HT transporter at 10 uM after 60 mins by scintillation counting relative to control
[13] = molecular target: Gamma-aminobutyric acid type B receptor subunit 1 (Homo sapiens) (UniProt Q9UBS5); test: Displacement of [3H]-CGP54626 from human recombinant GABAB1A channel at 10 uM incubated for 180 mins by scintillation counting analysis relative to control
Sequence of Gamma-aminobutyric acid type B receptor subunit 1 (Homo sapiens) (Q9UBS5 whole entry): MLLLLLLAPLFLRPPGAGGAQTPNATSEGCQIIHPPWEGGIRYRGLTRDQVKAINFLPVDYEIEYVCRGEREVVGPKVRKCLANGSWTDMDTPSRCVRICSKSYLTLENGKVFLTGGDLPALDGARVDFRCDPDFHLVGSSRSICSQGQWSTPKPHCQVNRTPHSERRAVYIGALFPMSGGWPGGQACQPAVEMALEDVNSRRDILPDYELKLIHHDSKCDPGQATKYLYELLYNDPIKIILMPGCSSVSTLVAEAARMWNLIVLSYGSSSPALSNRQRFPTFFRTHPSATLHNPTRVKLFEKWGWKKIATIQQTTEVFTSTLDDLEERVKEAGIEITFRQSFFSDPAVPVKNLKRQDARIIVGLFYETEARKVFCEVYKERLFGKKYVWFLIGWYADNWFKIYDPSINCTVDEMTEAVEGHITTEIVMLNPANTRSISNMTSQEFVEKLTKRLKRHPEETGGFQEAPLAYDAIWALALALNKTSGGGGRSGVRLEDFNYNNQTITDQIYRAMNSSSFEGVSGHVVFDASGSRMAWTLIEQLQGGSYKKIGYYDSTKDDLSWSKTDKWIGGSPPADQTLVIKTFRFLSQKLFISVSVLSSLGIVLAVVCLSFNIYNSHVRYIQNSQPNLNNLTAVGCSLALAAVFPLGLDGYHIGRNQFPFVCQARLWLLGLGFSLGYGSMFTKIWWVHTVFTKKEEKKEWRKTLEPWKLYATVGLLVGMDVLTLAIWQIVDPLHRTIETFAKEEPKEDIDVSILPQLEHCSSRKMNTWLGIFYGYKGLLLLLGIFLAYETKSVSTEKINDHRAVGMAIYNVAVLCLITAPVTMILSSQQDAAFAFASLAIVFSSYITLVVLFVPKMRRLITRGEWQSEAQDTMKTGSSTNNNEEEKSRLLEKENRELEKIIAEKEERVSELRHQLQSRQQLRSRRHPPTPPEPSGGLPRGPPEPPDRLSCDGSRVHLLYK

[14] = molecular target: B1 bradykinin receptor (Homo sapiens) (UniProt P46663); test: Displacement of [3H]desArg10-KD from human recombinant Bradykinin B1 receptor at 10 uM incubated for 120 mins by scintillation counting analysis relative to control
[15] = molecular target: D(2) dopamine receptor (Homo sapiens) (UniProt P14416); test: Displacement of [3H]7-OH-DPAT from human recombinant dopamine D2S receptor at 10 uM after 60 mins by scintillation counting analysis relative to control
[16] = molecular target: Neuropeptide Y receptor type 2 (Homo sapiens) (UniProt P49146); test: Displacement of [125I]peptide YY from human Y2 receptor at 10 uM after 120 mins by scintillation counting analysis relative to control
[17] = molecular target: Glutamate NMDA receptor (Rattus norvegicus) (UniProt P35439+Q00959+Q00960+Q00961+Q62645+Q8VHN2+Q9R1M7); test: Displacement of [3H]-CGP39653 from NMDA glutamate receptor in rat at 10 uM incubated for 20 mins by scintillation counting analysis relative to control
[18] = molecular target: Sodium-dependent dopamine transporter (Homo sapiens, UniProt Q01959); test: Displacement of […] from recombinant human Dopamine transporter after 120 mins by scintillation counting analysis; format: ADME
[19] = organism: Mus musculus; test: Displacement of [3H]-PDBu from mouse phorbol ester receptor at 10 uM incubated for 60 mins by scintillation counting analysis relative to control
[20] = organism: Rattus norvegicus; test: Displacement of [3H]-TCP from NMDA glutamate receptor phencyclidine binding site in rat at 10 uM incubated for 45 mins by scintillation counting analysis relative to control
[21] = organism: Rattus norvegicus; test: Displacement of [3H]-Rolipram from phosphodiesterases PDE4 rolipram binding site in rat at 10 uM incubated for 60 mins by radioligand binding assay relative to control
[22] = organism: Rattus norvegicus; test: Displacement of [3H]-Kainic acid from Glutamate ionotropic kainate receptor in rat at 10 uM incubated for 120 mins by scintillation counting analysis relative to control
[23] = organism: Rattus norvegicus; test: Displacement of [3H]-Muscimol from GABAA channel muscimol binding site in rat brain at 10 uM incubated for 10 mins by scintillation counting analysis relative to control; format: tissue-based
[24] = molecular target: Alpha-1B adrenergic receptor (Homo sapiens) (UniProt P35368); test: Displacement of [3H]-Prazosin from human recombinant adrenergic alpha 1B receptor at 10 uM incubated for 60 mins by scintillation counting analysis relative to control
Sequence of Alpha-1B adrenergic receptor (Homo sapiens) (P35368 whole entry): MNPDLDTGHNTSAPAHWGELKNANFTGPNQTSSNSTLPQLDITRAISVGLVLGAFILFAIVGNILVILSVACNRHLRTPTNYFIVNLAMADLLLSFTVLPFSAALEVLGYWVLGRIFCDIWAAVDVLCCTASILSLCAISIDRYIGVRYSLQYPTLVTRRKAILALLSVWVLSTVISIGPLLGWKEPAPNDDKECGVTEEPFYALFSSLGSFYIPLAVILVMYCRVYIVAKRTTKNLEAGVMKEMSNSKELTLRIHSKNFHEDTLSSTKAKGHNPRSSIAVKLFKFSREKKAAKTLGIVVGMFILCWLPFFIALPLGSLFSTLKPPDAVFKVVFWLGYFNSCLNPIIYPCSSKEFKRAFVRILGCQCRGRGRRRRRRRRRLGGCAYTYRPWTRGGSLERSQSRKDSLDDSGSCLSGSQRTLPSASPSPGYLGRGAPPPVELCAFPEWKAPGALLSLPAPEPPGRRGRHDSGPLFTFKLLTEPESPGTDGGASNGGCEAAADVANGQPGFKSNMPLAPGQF

[25] = molecular target: P2X receptor (Rattus norvegicus) (UniProt P51579+P49653+P51578+Q64663+P47824+P51577+P49654); test: Displacement of [3H]alpha, beta-methylene ATP from P2X receptor in rat urinary bladder at 10 uM incubated for 120 mins by scintillation counting analysis relative to control
[26] = molecular target: Metabotropic glutamate receptor 7 (Rattus norvegicus) (UniProt P35400); test: Positive allosteric modulation of rat mGlu7 expressed in HEK293 cells co- expressing GIRK assessed as potentiation of L-AP4-induced thallium flux incubated for 140 sec by FluoZin2-AM dye based fluorescence analysis relative to maximal induction of L-AP4; format: cell-based; details: filed as positive allosteric modulator
Sequence of Metabotropic glutamate receptor 7 (Rattus norvegicus) (P35400 whole entry): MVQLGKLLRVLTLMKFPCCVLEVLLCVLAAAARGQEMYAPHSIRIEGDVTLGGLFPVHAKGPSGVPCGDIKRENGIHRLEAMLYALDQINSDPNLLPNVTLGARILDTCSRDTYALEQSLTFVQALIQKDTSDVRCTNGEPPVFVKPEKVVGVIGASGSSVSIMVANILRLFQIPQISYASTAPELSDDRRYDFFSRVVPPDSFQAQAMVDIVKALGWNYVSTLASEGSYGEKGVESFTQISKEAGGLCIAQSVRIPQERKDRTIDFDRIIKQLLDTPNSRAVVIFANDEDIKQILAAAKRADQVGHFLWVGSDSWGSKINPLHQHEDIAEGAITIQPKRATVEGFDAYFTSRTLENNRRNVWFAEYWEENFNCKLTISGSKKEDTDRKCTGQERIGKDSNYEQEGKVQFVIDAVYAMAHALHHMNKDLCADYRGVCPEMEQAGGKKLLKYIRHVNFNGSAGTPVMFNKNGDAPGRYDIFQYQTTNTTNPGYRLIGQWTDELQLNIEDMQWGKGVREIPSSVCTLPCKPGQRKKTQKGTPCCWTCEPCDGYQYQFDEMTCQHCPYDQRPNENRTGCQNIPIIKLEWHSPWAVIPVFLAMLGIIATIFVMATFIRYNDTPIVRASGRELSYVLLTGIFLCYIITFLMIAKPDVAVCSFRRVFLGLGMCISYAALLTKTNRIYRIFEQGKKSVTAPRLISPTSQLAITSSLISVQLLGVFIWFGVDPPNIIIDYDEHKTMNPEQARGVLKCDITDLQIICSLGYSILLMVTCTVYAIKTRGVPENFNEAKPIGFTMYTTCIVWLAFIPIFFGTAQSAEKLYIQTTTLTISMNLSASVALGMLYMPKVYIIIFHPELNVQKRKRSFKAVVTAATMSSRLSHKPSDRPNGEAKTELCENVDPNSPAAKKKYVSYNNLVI

[27] = molecular target: Estrogen receptor (Homo sapiens) (UniProt P03372); test: Displacement of [3H]-estradiol from human recombinant Estrogen ERalpha receptor at 10 uM incubated for 120 mins by scintillation counting analysis relative to control
[28] = organism: Rattus norvegicus; test: Displacement of [3H]-Batrachotoxinin from rat sodium channel site 2 at 10 uM incubated for 60 mins by scintillation counting analysis relative to control
[29] = molecular target: Metabotropic glutamate receptor 7 (Rattus norvegicus) (UniProt P35400); test: Positive allosteric modulation of rat mGlu7 receptor expressed in HEK293 cells co-expressing Gai5 assessed as potentiation of L-AP4-induced calcium mobilization preincubated for 140 secs and treated with EC20 L-AP4 for 125 secs and followed by subsequent addition of EC80 L-AP4 by Fluo-4-AM dye based fluorescence assay relative to maximal induction of L-AP4; format: functional, cell-based; details: filed as positive allosteric modulator, time 140.0 sec
[30] = molecular target: Alpha-2A adrenergic receptor (Homo sapiens) (UniProt P08913); test: Displacement of [3H]-RX821002 from human recombinant adrenergic alpha 2A receptor at 10 uM incubated for 60 mins by scintillation counting analysis relative to control
[31] = molecular target: Beta-1 adrenergic receptor (Homo sapiens) (UniProt P08588); test: Displacement of [3H](-)CGP 12177 from human beta1 adrenoceptor at 10 uM after 60 mins by scintillation counting analysis relative to control

COc1cc(F)cc2c(N3CCN(c4ccccc4F)CC3)c(C#N)cnc12
inhibition ([1]; tested as the 2H-labelled form): < 50%
inhibition ([2]; tested as the 2H-labelled form): < 50%
inhibition ([3]; tested as the 2H-labelled form): < 50%
inhibition ([4]; tested as the 2H-labelled form): < 50%
inhibition ([5]; tested as the 2H-labelled form): < 50%
inhibition ([6]; tested as the 2H-labelled form): < 50%
inhibition ([7]; tested as the 2H-labelled form): < 50%
inhibition ([8]; tested as the 2H-labelled form): < 50%
inhibition ([9]; tested as the 2H-labelled form): < 50%
inhibition ([10]; tested as the 2H-labelled form): < 50%
inhibition ([11]; tested as the 2H-labelled form): < 50%
inhibition ([12]; tested as the 2H-labelled form): < 50%
inhibition ([13]; tested as the 2H-labelled form): < 50%
inhibition ([14]; tested as the 2H-labelled form): < 50%
inhibition ([15]; tested as the 2H-labelled form): < 50%
inhibition ([16]; tested as the 2H-labelled form): < 50%
inhibition ([17]; tested as the 2H-labelled form): < 50%
IC50 [18]: > 10000 nM
inhibition ([19]; tested as the 2H-labelled form): < 50%
inhibition ([20]; tested as the 2H-labelled form): < 50%
inhibition ([21]; tested as the 2H-labelled form): < 50%
inhibition ([22]; tested as the 2H-labelled form): < 50%
inhibition ([23]; tested as the 2H-labelled form): < 50%
inhibition ([24]; tested as the 2H-labelled form): < 50%
inhibition ([25]; tested as the 2H-labelled form): < 50%
Activity ([26]; tested as the 2H-labelled form): 62.8%
inhibition ([27]; tested as the 2H-labelled form): < 50%
inhibition ([28]; tested as the 2H-labelled form): < 50%
Activity [29]: 98%
Activity ([29]; tested as the 2H-labelled form): 98%
inhibition ([30]; tested as the 2H-labelled form): < 50%
inhibition ([31]; tested as the 2H-labelled form): < 50%

COc1cccc2c(N3CCN(c4ccccc4F)CC3)c(C#N)cnc12
inhibition [1]: < 50%
inhibition [2]: < 50%
inhibition [3]: < 50%
inhibition [4]: < 50%
inhibition [5]: < 50%
inhibition [6]: < 50%
inhibition [7]: < 50%
inhibition [8]: < 50%
inhibition [9]: < 50%
inhibition [10]: < 50%
inhibition [11]: < 50%
inhibition [12]: < 50%
inhibition [13]: < 50%
inhibition [14]: < 50%
inhibition [15]: < 50%
inhibition [16]: < 50%
inhibition [17]: < 50%
Ki [18]: 430 nM
inhibition [19]: < 50%
inhibition [20]: < 50%
inhibition [21]: < 50%
inhibition [22]: < 50%
inhibition [23]: < 50%
inhibition [24]: < 50%
inhibition [25]: < 50%
Activity [26]: 51.3%
inhibition [27]: < 50%
inhibition [28]: < 50%
Activity [29]: 85.1%
Activity ([29]; tested as the 2H-labelled form): 73%
inhibition [30]: < 50%
inhibition [31]: < 50%
